According to patent publication US11472778B2, “Hepatitis C virus NS3/4A protease inhibitors” (priority 2017, dated 2022):
Like-named read-outs stand apart in the source and are kept apart here.

Experiments:
[1] = system: wild-type HCV replicon in Huh7 cells; test: Cell-based drug susceptibility (replicon) assay, wild-type; settings: Hepatitis C virus, read-out: Replicon EC50 (nM) WT
Experimental: (§1) Mutations (R155K, A516T, D168A and D168V) were constructed by site-directed mutagenesis using a Con1 (genotype 1b) luciferase reporter replicon containing the H77 (genotype 1a) NS3 sequence.
(§2) Replicon RNA of each protease variant was introduced into Huh7 cells by electroporation. Replication was then assessed in the presence of increasing concentrations of protease inhibitors by measuring luciferase activity (relative light units) 96 h after electroporation.
(§3) Mutations (R155K, D168A and A156T) were constructed by site-directed mutagenesis using a Con1 (genotype 1b) luciferase reporter replicon containing the H77 (genotype 1a) NS3 sequence.^6 Replicon RNA of each protease variant was introduced into Huh7 cells by electroporation. Replication was then assessed in the presence of increasing concentrations of protease inhibitors by measuring luciferase activity (relative light units) 96 h after electroporation.

[2] = system: HCV replicon R155K variant in Huh7 cells; test: microbe, parasite or virus in culture; type: cell-based, Hepatitis C virus; settings: for EC50: Hepatitis C virus; for Replicon EC50 (Fold change) R155K: Table 4, relative to WT replicon
Experimental: as §1, §2, §3

[3] = system: HCV replicon A156T variant in Huh7 cells; test: microbe, parasite or virus in culture; type: cell-based, Hepatitis C virus; settings: for EC50: Hepatitis C virus; for Replicon EC50 (Fold change) A156T: Table 4, relative to WT replicon
Experimental: as §1, §2, §3

[4] = system: HCV replicon D168A variant in Huh7 cells; test: microbe, parasite or virus in culture; type: cell-based, Hepatitis C virus; settings: for EC50: Hepatitis C virus; for Replicon EC50 (Fold change) D168A: Table 4, relative to WT replicon
Experimental: as §1, §2, §3

[5] = molecular target: T1, wild-type GT1a NS3/4A protease (UniProt P27958, C1185S, species not given); type: biochemical, Hepatitis C virus; settings: read-out: Ki (nM) GT1a WT NS3/4A Protease
T1 construct: Ki (nM) GT1a WT NS3/4A Protease
Experimental: (§4) For each assay, 2 nM of NS3/4A protease (GT1, D168A and GT3) was pre-incubated at room temperature for 1 h with increasing concentration of inhibitors in assay buffer [50 mM Tris, 5% glycerol, 10 mM DTT, 0.6 mM LDAO, and 4% dimethyl sulfoxide]. Inhibition assays were performed in nonbinding surface 96-well black half-area plates (Corning) in a reaction volume of 60 μt. […] Three independent data sets were collected for each inhibitor with each protease construct.
as §4, with “(GT1a” for “(GT1, D168A”, “D168A)” for “GT3)”, “(50” for “[50”, “sulfoxide, pH 7.5).” for “sulfoxide].”, “non-binding” for “nonbinding”, “μL.” for “μt.”
(§5) For each assay, 2 nM of NS3/4A protease (GT1a, R155K and D168A) was pre-incubated at room temperature for 1 h with increasing concentration of inhibitors in assay buffer (50 mM Tris, 5% glycerol, 10 mM DTT, 0.6 mM LDAO, and 4% dimethyl sulfoxide, pH 7.5). Inhibition assays were performed in non-binding surface 96-well black half-area plates (Corning) in a reaction volume of 60 μL. […] Three independent data sets were collected for each inhibitor with each protease construct. […] Gibbs free energy of binding was calculated using the following equation: ΔG=RTlnKi

[6] = molecular target: T2, GT1a D168A NS3/4A protease (UniProt P27958, C1185S/D1194A, species not given); type: biochemical, Hepatitis C virus; settings: read-out: Ki (nM) GT1a D168A NS3/4A Protease
T2 construct: Ki (nM) GT1a D168A NS3/4A Protease
Experimental: as §4
(§6) For each assay, 2 nM of NS3/4A protease (GT1a and D168A) was pre-incubated at room temperature for 1 h with increasing concentration of inhibitors in assay buffer (50 mM Tris, 5% glycerol, 10 mM DTT, 0.6 mM LDAO, and 4% dimethyl sulfoxide, pH 7.5). Inhibition assays were performed in non-binding surface 96-well black half-area plates (Corning) in a reaction volume of 60 μL. […] Three independent data sets were collected for each inhibitor with each protease construct.
as §5

[7] = molecular target: GT1a D168A NS3/4A protease; type: biochemical, Hepatitis C virus; settings: Table 3; Ki D168A relative to GT1a WT
Experimental: as §4, §6, §5

[8] = system: HCV replicon D168V variant in Huh7 cells; test: microbe, parasite or virus in culture; type: cell-based, Hepatitis C virus; settings: for EC50: Hepatitis C virus; for Replicon EC50 (Fold change) D168V: Table 4, relative to WT replicon
Experimental: as §1
Replicon RNA of each protease variant was introduced into Huh7 cells by electroporation. Replication was then assessed in the presence of increasing concentrations of protease inhibitors by measuring luciferase activity (relative light units) 96 h after electroporation. […]

[9] = Huh-7, 96 h, Table 2, Huh7 cells, luciferase 96 h
[10] = Huh-7, 96 h, read-out: Replicon EC50 (nM) R155K, Table 2, Huh7 cells, luciferase 96 h
[11] = Huh-7, read-out: Replicon EC50 (nM) R155K, Table 4
[12] = Huh-7, 96 h, read-out: Replicon EC50 (nM) A156T, Table 2, Huh7 cells, luciferase 96 h
[13] = Huh-7, read-out: Replicon EC50 (nM) A156T, Table 4
[14] = Huh-7, 96 h, read-out: Replicon EC50 (nM) D168A, Table 2, Huh7 cells, luciferase 96 h
[15] = Huh-7, read-out: Replicon EC50 (nM) D168A, Table 4
[16] = Huh-7, 96 h, read-out: Replicon EC50 (nM) D168V, Table 2, Huh7 cells, luciferase 96 h
[17] = Huh-7, read-out: Replicon EC50 (nM) D168V, Table 4

| Structure (SMILES) | EC50 [1, 9] | EC50 ([1]; Huh-7, Table 4) | EC50 [2, 10] | EC50 [2, 11] | Replicon EC50 (Fold change) R155K [2] | EC50 [3, 12] | EC50 [3, 13] | Replicon EC50 (Fold change) A156T [3] | EC50 [4, 14] | EC50 [4, 15] | Replicon EC50 (Fold change) D168A [4] | Ki ([5]; Table 1) | Ki ([5]; Table 3) | Ki ([6]; Table 1) | Ki ([6]; Table 3) | Ki (Fold change) GT1a D168A NS3/4A Protease [7] | EC50 [8, 16] | EC50 [8, 17] | Replicon EC50 (Fold change) D168V [8] |
| --- | --- | --- | --- | --- | --- | --- | --- | --- | --- | --- | --- | --- | --- | --- | --- | --- | --- | --- | --- |
| COc1ccc2nc(C(C)C)c(O[C@@H]3C[C@H]4C(=O)N[C@]5(C(=O)NS(=O)(=O)C6(C)CC6)C[C@H]5/C=C\CCCCC[C@H](NC(=O)OC5CCCC5)C(=O)N4C3)nc2c1 [Compound 23e, Cyclopentyl ((2R,6S,13aS,14aR,16aS,Z)-2-((3-isopropyl-7-methoxyquinoxalin-2-yl)oxy)-14a-(((1-methylcyclopropyl)sulfonyl)carbamoyl)-5,16-dioxo-1,2,3,5,6,7,8,9,10,11,13a,14,14a,15,16,16a-hexadecahydrocyclopropa[e]pyrrolo[1,2-a][1,4]diazacyclopentadecin-6-yl)carbamate] | 0.59 nM | 0.59 nM | 6.83 nM | 6.83 nM | (12) fold | 27.6 nM | 27.6 nM | (47) fold | 7.91 nM | 7.91 nM | (13) fold | 1.34 nM | 1.34 nM | 156 nM | 156 ± 17 nM | (116) fold | 18.2 nM | 18.2 nM | (31) fold |
| COc1ccc2nc(C(C)C)c(O[C@@H]3C[C@H]4C(=O)N[C@]5(C(=O)NS(=O)(=O)C6CC6)C[C@H]5/C=C\CCCCC[C@H](NC(=O)OC(C)(C)C)C(=O)N4C3)nc2c1 [Compound 18e] | 1.43 nM | 1.43 nM | 5.02 nM | 5.02 nM | (4) fold | 25.7 nM | 25.7 nM | (18) fold | 15.3 nM | 15.3 nM | (11) fold | 4.27 nM | 4.27 nM | 239 nM | 239 ± 20 nM | (56) fold | 23.7 nM | 23.7 nM | (17) fold |
| O=C(N[C@H]1CCCCC/C=C\[C@@H]2C[C@@]2(C(=O)NS(=O)(=O)C2CC2)NC(=O)[C@@H]2C[C@@H](Oc3nc4ccccc4nc3-c3cccs3)CN2C1=O)OC1CCCC1 [Compound 22f, Cyclopentyl ((2R,6S,13aS,14aR,16aS,Z)-14a-((cyclopropylsulfonyl)carbamoyl)-5,16-dioxo-2-((3-(thiophen-2-yl)quinoxalin-2-yl)oxy)-1,2,3,5,6,7,8,9,10,11,13a,14,14a,15,16,16a-hexadecahydrocyclopropa[e]pyrrolo[1,2-a][1,4]diazacyclopentadecin-6-yl)carbamate] | 0.4 nM | 0.4 nM | 19.2 nM | 19.2 nM | (48) fold | 183 nM | 183 nM | (458) fold | 42.2 nM | 42.2 nM | (106) fold | 1.59 nM | 1.59 nM | 900 nM | 900 ± 81 nM | (566) fold | 70 nM | 70 nM | (175) fold |
